Data: paper PMC10226132, “First-in-Class Selective Inhibitors of the Lysine Acetyltransferase KAT8” (Journal of Medicinal Chemistry, 2023)

Key:
KDAC2, 3, 6, and 8 = tested on: KDAC2, 3, 6, and 8; design: method as in PMID 26718586; details: cited from earlier work
H1299-EGFP-LC3 cells = assay: Fluorescence microscopy of autophagosomes in EGFP-LC3 H1299 cells; format: cell-based, human; details: increasing doses, 48 h
Protocol: The stable EGFP-LC3 H1299 cell line was used to detect autophagic structures by fluorescence spinning disk microscopy. Cells were grown on glass coverslips, treated with compounds for 48 h and fixed in 3.7% formaldehyde (Sigma, F1635) DNA was counterstained with 0.05 μg/mL DAPI (4,6-diamidino-2-phenylindole; Sigma-Aldrich, D9542). At least 500 cells were counted for each experimental point, and cells showing ≥15 dots were considered positive. Dots were counted using a pipeline created in a previous work on the CellProfiler software.[68] Data are presented as median with interquartile range. Samples were observed under a Nikon Eclipse Ti2 microscope with a 60× (1.4 NA) objective, equipped with a CrestOptics X-Light V3 confocal spinning disk and a back illuminated Kinetix sCMOS camera.

HeLa cells = assay: Annexin V/PI analysis, HeLa; format: cell-based, human; details: 50 and 100 μM, 72 h, compared to control
Protocol: (§1) For the analysis of the progression of cells through cell cycle phases and sub-G1 peak identification, 24 h after plating, cells were treated with the different compounds. After 72 h, both floating and adherent cells were collected and fixed with cold 70% ethanol. At least 24 h after fixation, cells were incubated with 0.025 mg/mL Propidium Iodide for 15 min at room temperature and analyzed. For Annexin V analysis, 24 h after plating, cells were treated with 50 and 100 μM of the compounds. In the case of chloroquine experiments, 10 μM chloroquine (Sigma-Aldrich, A9165) was added 30 min before compounds. 72 h after treatment, both floating and adherent cells were collected and stained with an Annexin V-FITC apoptosis detection kit (ENZO #ALX-850-020-KI). Samples were incubated 15 min in the dark at rt, and 10,000 events were then analyzed.

H460 cells = assay: MTT cell proliferation assay, H460; format: cell-based, human; details: 10, 25, 50, 100 μM, 72 h
Excerpt: Human commercially available AML U937, breast cancer MCF7, lung adenocarcinoma NCI-H460, H1299 and A-549, glioblastoma U251, B lymphocyte AHH1 cell lines were maintained in compete 10% foetal bovine serum (FBS,) RPMI 1640 (Euroclone, Milan, IT) medium. Human commercially available colon cancer HCT116 and HT29 lines and cervix adenocarcinoma HeLa cells were maintained in compete 10% FBS Dulbecco’s Modified Eagle Medium (DMEM) high glucose medium (Euroclone). L-Glutamine, FBS, and penicillin streptomycin mixture added to medium were obtained from Euroclone. All cell lines were cultured at 37 °C in a humidified atmosphere of 5% CO2:95% air and were tested for mycoplasma contamination routinely by RT-PCR.
For analysis of cell proliferation, cells were plated in sextuplicate on 96-well plates in complete media. After 24 h, cells were exposed to different drugs for 72 h. The inhibitory effect of different drugs was assessed by MTT (Sigma, St. Louis, MO, USA) colorimetric assays as previously reported.[67] Aqueous DMSO (0.5% v/v) was used as a control (untreated). The results are reported as “viability of drug-treated cells/viability of untreated cells” × 100 and represent the average ±SD of three independent experiments. IC50 values were using fitted by nonlinear regression using GraphPad Prism 8.0.

HCT116 cells = assay: Annexin V/PI analysis, HCT116; format: cell-based, human; details: 72 h; for apoptotic effect in combination with chloroquine (Annexin V), HCT116: 100 μM compound + CQ 10 μM; for apoptotic cell population (Annexin V), HCT116: 50 and 100 μM, compared to control
Protocol: as §1

[1] = tested on: LC3 and p62 in HeLa cells; assay: Western blot of autophagic markers in HeLa cells; format: cell-based, human; details: increasing doses, 48 h
Protocol: For WB experiments, the cells were lysed in RIPA buffer supplemented with 1× […] protease inhibitor cocktail (Sigma-Aldrich, S8830); 20 μg of total protein was resolved in 13.5% gels by SDS-PAGE. Then, the proteins were transferred to nitrocellulose membranes (Biorad Laboratories). Membranes were blocked for 1 h and incubated overnight with the appropriate primary antibody at 4 °C. After incubation, membranes were washed and incubated with the appropriate secondary antibody (Biorad Laboratories) for 1 h at room temperature. Following primary rabbit monoclonal antibodies H4K16Ac (1:1000, E2B8W, Rabbit mAb#13534, Cell Signalling Technology), KAT8 (1:1000, D5T3R Rabbit mAb #46862 Cell Signalling Technology), GAPDH (1:1000, sc-32233, Santa Cruz Biotechnologies), anti-LC3B (Sigma-Aldrich, L7543), anti-SQSTM1/p62 (Santa Cruz Biotechnology, sc-28,359), and anti-GAPDH (Santa Cruz Biotechnology, sc-32,233). Secondary antibodies: anti-mouse (Bio-Rad Laboratories, 1,706,515) or anti-rabbit (Bio-Rad Laboratories, 1,706,516) IgG-horseradish peroxidase-conjugated antibodies. Detection was performed by ECL Western Blotting Substrate (Biorad Laboratories). Images of blots were acquired through the ChemiDoc Imaging Systems (Biorad Laboratories). The band signals were quantified using ImageJ, and values were normalized to relative controls, depending on the analysis.

[2] = tested on: HOXA9 mRNA in HCT116 cells; assay: qRT-PCR of HOXA9 mRNA in HCT116 cells; format: cell-based, human; details: HCT116, 100 μM, 48 h
Protocol: Total RNA was isolated from cells after 48 h of treatment with compounds 19 and 34 (100 μM) using TRIzol reagent (Life Technologies) following the manufacturer’s instructions. cDNA was obtained by reverse transcription using a SensiFast cDNA Synthesis kit (Meridian Bioscience). qRT-PCR was performed using a Luna Universal qPCR Master Mix (BioLabs) and detected by Quant Studio3. The fold change of gene expression data was calculated by using the ddCT method. All samples were run in sextupled, and the results were presented as mean ± SEM. Detailed sequence of the primers used in the experiments can be found in the list below. • UCP2—Forward: 5′-[…]-3′ • Reverse 5′-[…]-3′ • HOXA9 — Forward: 5′-[…]-3′ • Reverse: 5′-[…]-3′

Row | SMILES | IC50 (KDAC2, 3, 6, and 8) | EGFP-LC3 dots per cell (H1299-EGFP-LC3 cells) | apoptotic cell population (Annexin V), HeLa (HeLa cells) | antiproliferative activity in H460 (H460 cells) | apoptotic effect in combination with chloroquine (Annexin V), HCT116 (HCT116 cells) | apoptotic cell population (Annexin V), HCT116 (HCT116 cells) | LC3-II/-I ratio and p62 autophagic markers (WB), HeLa [1] | HOXA9 mRNA levels [2]
1 | CC1=NN(c2ccc(C(=O)O)cc2)C(=O)/C1=C\c1ccc(-c2cc(C)c(C)cc2[N+](=O)[O-])o1 [VII (C646), reference compound] | 7 to 25 µM |  |  |  |  |  |  | 
2 | CC1=NN(c2ccc(C(=O)O)cc2)C(=O)/C1=C\c1ccc[nH]1 [Compound 19, (Z)-4-(4-((1H-Pyrrol-2-yl)methylene)-3-methyl-5-oxo-4,5-dihydro-1H-pyrazol-1-yl)benzoic Acid] |  | significantly increased | only a slight increase in apoptotic cell population | inhibited H460 proliferation | increased the apoptotic effect | only a slight increase in apoptotic cell population |  | 
3 | O=C(O)c1ccc(N2N=C(c3ccccc3)/C(=C/c3ccc[nH]3)C2=O)cc1 [Compound 34, (Z)-4-(4-((1H-Pyrrol-2-yl)methylene)-5-oxo-3-phenyl-4,5-dihydro-1H-pyrazol-1-yl)benzoic Acid] |  | significantly increased | only a slight increase in apoptotic cell population | essentially inactive | increased the apoptotic effect | only a slight increase in apoptotic cell population | A similar response | downregulating also HOXA9
